Laboratory results as given in ChEMBL document CHEMBL2057064, “Activation of human RNase L by 2'- and 5'-O-methylphosphonate-modified oligoadenylates” (Bioorg Med Chem Lett, 2012).
The source made the active and inactive calls. The calls are words filed in the database; no cut-off is given here.

Experiments:
[1] = molecular target: T1, 2-5A-dependent ribonuclease (Homo sapiens) (UniProt Q05823); assay: (§1) Activation of human RNase L expressed in Escherichia coli BL21 (DE3) cells assessed as RNA cleavage using Cy5-rC11-UU-C7-BHQ2 as substrate by FRET assay
T1 sequence (whole entry): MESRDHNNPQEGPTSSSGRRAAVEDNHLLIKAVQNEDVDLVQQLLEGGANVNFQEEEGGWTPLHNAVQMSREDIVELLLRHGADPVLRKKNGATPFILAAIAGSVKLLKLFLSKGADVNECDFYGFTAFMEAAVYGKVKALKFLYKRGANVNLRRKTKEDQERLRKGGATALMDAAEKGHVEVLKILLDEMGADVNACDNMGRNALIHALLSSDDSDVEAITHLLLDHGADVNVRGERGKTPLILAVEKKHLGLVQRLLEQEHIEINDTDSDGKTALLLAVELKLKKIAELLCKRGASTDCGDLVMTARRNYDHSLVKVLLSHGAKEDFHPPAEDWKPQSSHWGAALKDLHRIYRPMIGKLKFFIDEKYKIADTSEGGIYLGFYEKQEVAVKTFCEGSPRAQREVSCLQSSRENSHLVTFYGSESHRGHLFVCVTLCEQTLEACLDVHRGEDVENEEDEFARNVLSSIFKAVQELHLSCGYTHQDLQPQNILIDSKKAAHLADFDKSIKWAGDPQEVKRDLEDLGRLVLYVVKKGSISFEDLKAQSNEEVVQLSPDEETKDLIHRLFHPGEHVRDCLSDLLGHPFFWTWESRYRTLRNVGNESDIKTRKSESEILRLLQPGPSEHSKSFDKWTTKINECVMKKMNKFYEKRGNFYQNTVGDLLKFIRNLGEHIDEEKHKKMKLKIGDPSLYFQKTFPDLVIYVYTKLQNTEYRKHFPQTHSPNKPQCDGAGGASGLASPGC

[2] = molecular target: T2, 2-5A-dependent ribonuclease (Homo sapiens, UniProt Q05823); assay: as §1
T2 sequence (Q05823 whole entry): T1 sequence (whole entry)

Structure (SMILES): Nc1ncnc2c1ncn2[C@@H]1O[C@H](COP(=O)(O)O[C@@H]2[C@H](O)[C@@H](COP(=O)(O)O[C@@H]3[C@H](O)[C@@H](COP(=O)(O)O[C@@H]4[C@@H](O)[C@@H](COCP(=O)(O)O)O[C@H]4n4cnc5c(N)ncnc54)O[C@H]3n3cnc4c(N)ncnc43)O[C@H]2n2cnc3c(N)ncnc32)[C@@H](O)[C@H]1O
- Activity [1]: Active
- EC50 [2]: 300 nM

Structure (SMILES): Nc1ncnc2c1ncn2[C@@H]1O[C@H](COCP(=O)(O)O[C@@H]2[C@H](O)[C@@H](COP(=O)(O)O[C@@H]3[C@H](O)[C@@H](COP(=O)(O)O[C@@H]4[C@H](O)[C@@H](COP(=O)(O)O)O[C@H]4n4cnc5c(N)ncnc54)O[C@H]3n3cnc4c(N)ncnc43)O[C@H]2n2cnc3c(N)ncnc32)[C@H](O)[C@H]1O
- Activity [1]: Active
- EC50 [2]: 4.2 nM

Structure (SMILES): Nc1ncnc2c1ncn2[C@@H]1O[C@H](COP(=O)(O)O[C@@H]2[C@H](O)[C@@H](COP(=O)(O)O[C@@H]3[C@H](O)[C@@H](COP(=O)(O)O[C@H]4[C@H](O)[C@@H](COCP(=O)(O)O)O[C@H]4n4cnc5c(N)ncnc54)O[C@H]3n3cnc4c(N)ncnc43)O[C@H]2n2cnc3c(N)ncnc32)[C@@H](O)[C@H]1O
- Activity [1]: Active
- EC50 [2]: 1000 nM

Structure (SMILES): Nc1ncnc2c1ncn2[C@@H]1O[C@H](COP(=O)(O)O[C@@H]2[C@H](O)[C@@H](COCP(=O)(O)O[C@@H]3[C@H](O)[C@@H](COP(=O)(O)O[C@@H]4[C@H](O)[C@@H](COP(=O)(O)O)O[C@H]4n4cnc5c(N)ncnc54)O[C@H]3n3cnc4c(N)ncnc43)O[C@H]2n2cnc3c(N)ncnc32)[C@@H](O)[C@H]1O
- Activity [1]: inactive
- EC50 [2]: 300 nM

Structure (SMILES): Nc1ncnc2c1ncn2[C@@H]1O[C@H](COP(=O)(O)O[C@@H]2[C@H](O)[C@@H](COP(=O)(O)O[C@@H]3[C@H](O)[C@@H](COCP(=O)(O)O[C@@H]4[C@H](O)[C@@H](COP(=O)(O)O)O[C@H]4n4cnc5c(N)ncnc54)O[C@H]3n3cnc4c(N)ncnc43)O[C@H]2n2cnc3c(N)ncnc32)[C@@H](O)[C@H]1O
- Activity [1]: inactive
- EC50 [2]: > 1000 nM

Structure (SMILES): Nc1ncnc2c1ncn2[C@@H]1O[C@H](COCP(=O)(O)O[C@@H]2[C@H](O)[C@@H](COP(=O)(O)O[C@@H]3[C@H](O)[C@@H](COP(=O)(O)O[C@@H]4[C@H](O)[C@@H](COP(=O)(O)O)O[C@H]4n4cnc5c(N)ncnc54)O[C@H]3n3cnc4c(N)ncnc43)O[C@H]2n2cnc3c(N)ncnc32)[C@@H](O)[C@H]1O
- Activity [1]: Active
- EC50 [2]: 15 nM

Structure (SMILES): Nc1ncnc2c1ncn2[C@@H]1O[C@H](COP(=O)(O)O[C@@H]2[C@H](O)[C@@H](COP(=O)(O)O[C@@H]3[C@H](O)[C@@H](COP(=O)(O)CO[C@@H]4[C@@H](O)[C@@H](COP(=O)(O)O)O[C@H]4n4cnc5c(N)ncnc54)O[C@H]3n3cnc4c(N)ncnc43)O[C@H]2n2cnc3c(N)ncnc32)[C@@H](O)[C@H]1O
- Activity [1]: Active
- EC50 [2]: 300 nM

Structure (SMILES): Nc1ncnc2c1ncn2[C@@H]1O[C@H](COCP(=O)(O)O[C@@H]2[C@H](O)[C@@H](COP(=O)(O)O[C@@H]3[C@H](O)[C@@H](COP(=O)(O)O[C@@H]4[C@H](O)[C@@H](COP(=O)(O)O)O[C@H]4n4cnc5c(N)ncnc54)O[C@H]3n3cnc4c(N)ncnc43)O[C@H]2n2cnc3c(N)ncnc32)[C@@H](O)[C@@H]1O
- Activity [1]: Active
- EC50 [2]: 6.5 nM

Structure (SMILES): Nc1ncnc2c1ncn2[C@@H]1O[C@H](COP(=O)(O)CO[C@H]2[C@H](O)[C@@H](COP(=O)(O)O[C@@H]3[C@H](O)[C@@H](COP(=O)(O)O[C@@H]4[C@H](O)[C@@H](COP(=O)(O)O)O[C@H]4n4cnc5c(N)ncnc54)O[C@H]3n3cnc4c(N)ncnc43)O[C@H]2n2cnc3c(N)ncnc32)[C@@H](O)[C@H]1O
- Activity [1]: Active
- EC50 [2]: 1000 nM

Structure (SMILES): Nc1ncnc2c1ncn2[C@@H]1O[C@H](COP(=O)(O)O[C@@H]2[C@@H](O)[C@@H](COCP(=O)(O)O[C@@H]3[C@H](O)[C@@H](COP(=O)(O)O[C@@H]4[C@H](O)[C@@H](COP(=O)(O)O)O[C@H]4n4cnc5c(N)ncnc54)O[C@H]3n3cnc4c(N)ncnc43)O[C@H]2n2cnc3c(N)ncnc32)[C@@H](O)[C@H]1O
- Activity [1]: Active
- EC50 [2]: 1000 nM
